A short description of this data set: Human HepG2 cell viability assay in 384 well format. The data set is classed as toxicity, cell-based. More on the design: dose 125 nL, time 70.5 hour; cytotoxicity at 70.5 h: concentration not given beside the values. To be noted: HepG2 cells, read-out: Inhibition.

`CCc1nc(C)ncc1C(=O)N1CC(=O)N(C)c2ccccc21`: the cytotoxicity at 70.5 h is -10.1%.
For `COc1ncc(Cl)c(NCc2ccc(C(=O)N(C)C)cc2)n1` the value was 27.7%; for `N#Cc1nccnc1N1CCC(OCCCc2ccccc2)C1` (stereo not given), -6.29%.
For the compound `CCc1nc(C)ncc1C(=O)N1CC(C)CN(C)c2ccccc21` (stereo not given), the cytotoxicity at 70.5 h was -7.55%.
With `Cc1nc(C2CCCN2Cc2cc(Cl)c3c(c2)OCCO3)no1` (stereo not given) the figure was 16.9%.
Take `COC1CCCN(C(=O)NCCCF)C1` (stereo not given): the cytotoxicity at 70.5 h is -2.7%.
For `Cc1ccc(C2CN(Cc3cnc(-c4ccccn4)s3)CCO2)o1` (stereo not given) the value was 22.5%; for `N#CCCN(CCC#N)C(=O)CN(C1CC1)C1CCc2ccccc21` (stereo not given), -2.92%.
With `CC(NC(=O)C1CCCC1)c1nc(-c2ccccc2)c[nH]1` (stereo not given) the figure was 1.26%; with `CCOc1ccc(NC(=O)N2CCNC(=O)C2)c(C(F)(F)F)c1`, 1.37%.
For `O=C(O)CSc1nc(-c2ccc3c(c2)CCC3)n[nH]1` the value was 2.18%.
Turning to `COCCS(=O)(=O)NC(C)c1ccccc1Br` (stereo not given), the cytotoxicity at 70.5 h was -0.0652%.
For `CC(C)(C)C(=O)NS(=O)(=O)c1ccc(F)cc1C(F)(F)F` the value was -3.41%.
With `CSCc1cccc(NC(=O)N2CCC(N3CC=CC3)C2)c1` (stereo not given) the figure was 35%.
For `CS(=O)(=O)CCSc1n[nH]c(-c2ccc3c(c2)CCC3)n1` the value was 3.91%; for `Cc1cc(C(=O)Nc2cccn(Cc3ccc(F)cc3)c2=O)on1`, -3.03%; for `CC1CN(C(=O)c2ccc(=O)n(C)c2)c2ccccc2NC1=O` (stereo not given), -0.859%.
In the case of `CSCC(C)(O)CNc1ncccc1I` (stereo not given), the cytotoxicity at 70.5 h was 7.7%.
For `CN(C)C(CNCc1nc(-c2ccsc2)no1)c1ccco1` (stereo not given) the value was -16.8%.
With `Cc1cc(C(C)NCCN2CCC(N(C)C)CC2)c(C)s1` (stereo not given) the figure was 12.7%.
With `CC(CNCC1(S(C)(=O)=O)CCOCC1)c1ccc(F)cc1` (stereo not given) the figure was 9.05%; with `CN(CCS(=O)(=O)c1cc(Cl)ccc1Cl)CC(=O)Nc1ccc(F)cc1`, 6.55%; with `Fc1cccc2ncnc(NCC3(N4CCOCC4)CCSC3)c12` (stereo not given), 3.01%.
On to `CN(CC(N)=O)C(=O)c1cnc(-c2ccc(Cl)s2)s1`, for which the cytotoxicity at 70.5 h is -4.25%.
For `CN1CC(C(=O)NCc2cccnc2OCc2ccccc2)CC1=O` (stereo not given) the value was -4.14%; for `CN1CC(C(=O)NCc2ccc(OCc3cccnc3)cc2)CC1=O` (stereo not given), 12.9%; for `Cc1nnc2n1CCN(CC(O)CN1CCC(C)CC1)C2` (stereo not given), -2.86%.
With `CCc1ccc(C(=O)NC(C)c2ccc(S(C)(=O)=O)c(F)c2)o1` (stereo not given) the figure was 13.1%.
Turning to `CCN(C)CC1CCN(c2ncc(Br)cn2)C1` (stereo not given), the cytotoxicity at 70.5 h came to 9.92%.
In the case of `O=C1COc2cccc(OCc3ccccn3)c2N1`, the cytotoxicity at 70.5 h is -0.596%.
For `CN(CCS(=O)(=O)c1cc(Cl)ccc1Cl)CC(=O)Nc1cccc(F)c1` the value was -0.61%.
With `Cc1cc(NCCOCCS(C)(=O)=O)nc2ccccc12` the figure was 1.59%.
For `CC(C1CC1)N(CC(=O)NCC(F)(F)F)C1CC1` (stereo not given) the value was 13.2%; for `Cc1cccc(NCc2ncc(C(C)(C)C)o2)c1`, 12.6%.
For `CC(=O)N1CCCN(C(=O)Cc2c(C)nc(C)[nH]c2=O)CC1`, the cytotoxicity at 70.5 h is -0.651%.
With `CCC(C)CNCC1(S(C)(=O)=O)CCOCC1` (stereo not given) the figure was -1.98%; with `CC(CN1CCOCC1)OC(=O)c1cccc2cn[nH]c12` (stereo not given), 12%; with `CC(NCCCN1CCCN(C)CC1)C(C)(C)C` (stereo not given), -11.8%.
With `COCCOCCCNC(=O)c1cc(Cl)cc2cccnc12` the figure was -18.1%; with `CC(CC1CC1)NCCCN1CCCN(C)CC1` (stereo not given), 7.35%; with `O=S(=O)(Cc1ccccc1)NCCc1nnc2n1CCC2`, -7.99%.
With `O=S(=O)(Cc1ccc(F)cc1)NCc1nnc2n1CCC2` the figure was -24.3%; with `Cc1ccc(C)n1-c1c(C(=O)NCC(c2ccsc2)N(C)C)cnn1C` (stereo not given), -14.4%.
In the case of `Cn1nnnc1SCCC(=O)NCC1Cc2ccccc2O1` (stereo not given), the cytotoxicity at 70.5 h was -23.7%.
As to `Cc1ccc(C)n1-c1c(C(=O)NCC(C)N(C)C)cnn1C` (stereo not given), the cytotoxicity at 70.5 h is -0.908%.
As for `CCOc1cccc(CNC(=O)c2cnn(CC)c2C(F)(F)F)c1`, the cytotoxicity at 70.5 h was -2.57%.
With `CC(=O)c1ccc(-n2c(C)cn(CCC(=O)NC(N)=O)c2=O)cc1` the figure was -14.8%; with `CCN(Cc1ccc(F)cc1Cl)C1CCS(=O)(=O)C1` (stereo not given), -19.3%; with `COc1cc(I)c(Cl)cc1C(=O)N(C)CC(C)(C)O`, 21%.
With `O=C(Cn1cc(I)cn1)NCC1CCC1` the figure was -20.2%; with `O=C(NCCC1CC1)NCc1cccc(-n2ccnc2)c1`, -2.8%; with `Cc1ccc(CCCC(=O)N2CCC(CS(N)(=O)=O)CC2)s1`, -18.3%.
With `Cc1cc(F)c(S(=O)(=O)Nc2ccn(CCCC#N)n2)cc1F` the figure was -16%; with `Cc1cc(F)cc(S(=O)(=O)Nc2ccn(CCCC#N)n2)c1`, -9.51%.
As for `Cc1cncc(NC(=O)c2ccc(CN3CCC(CO)CC3)cc2)c1`, the cytotoxicity at 70.5 h was -16.3%.
For `CCS(=O)(=O)c1ccc2c(c1)N1CCS(=O)(=O)N=C1O2` the value was -15.4%.
With `NS(=O)(=O)CC1CCCN(C(=O)CCCC2CCCC2)C1` (stereo not given) the figure was -12.7%.
For the compound `COCCCN(Cc1ccccc1Cl)C1CCS(=O)(=O)C1` (stereo not given), the cytotoxicity at 70.5 h was found to be 25.3%.
Take `N#Cc1cccc(CN(CCO)Cc2ccsc2)c1`: the cytotoxicity at 70.5 h was -20.4%.
With `CCOc1cc(C(=O)O)cc(-c2ccccc2)c1OC` the figure was -1.01%; with `O=C(CNC(=O)C1CC1)NCC(F)(F)F`, 1.27%; with `N#Cc1ccc(N2CCN(c3nccs3)CC2)nc1`, -0.838%.
`N#Cc1ccc(N2CCCN(c3nccs3)CC2)nc1`: the cytotoxicity at 70.5 h amounted to 1.75%.
With `CN1CCC(CNC(=O)c2cccc(NC(N)=O)c2)c2ccccc21` (stereo not given) the figure was -2.27%.
With `Cc1ccc(C(=O)NCC2CCN(C)c3ccccc32)c(=O)[nH]1` (stereo not given) the figure was -2.94%; with `CCn1c(CN2CCOC(Cn3cccn3)C2)nc2c(F)cccc21` (stereo not given), -3.89%; with `CCc1noc(CN(C)CCC(=O)Nc2ccccc2C#N)n1`, -1.02%.
With `CC(C)Oc1ccccc1CNC(=O)c1[nH]ncc1Br` the figure was 7%; with `Cn1c(CN2CCOC(Cn3cncn3)C2)nc2ccccc21` (stereo not given), 13.6%.
In the case of `CCCS(=O)(=O)NC(=O)c1ccc(Br)o1`, the cytotoxicity at 70.5 h stood at 1.65%.
For `Clc1cccc(-c2noc(CCN3CCN(c4ccncc4)CC3)n2)c1` the value was 4%; for `O=S(=O)(Nc1ccccn1)c1cc(Cl)cc2c1OCC2`, 4.53%; for `O=S(=O)(Nc1nccs1)c1cc(Cl)cc2c1OCC2`, 2.51%.
For `Cc1cc(CN2CC[C@H]3OCC[C@@]3(C(=O)N3CCOCC3)C2)no1` the value was -5%; for `CN(C)[C@@H]1CCN(S(C)(=O)=O)[C@H]1Cc1ccccc1`, 1.53%.
For `CC(C)N(C)Cc1nnc2n1CCCN(c1cnccn1)C2` the value was -4.42%; for `O=C([C@H]1CC[C@@H]2[C@@H](CCN2c2ncccn2)O1)N1CCCCO1`, -1.66%.
For `C[C@@H]1CN(C(=O)c2ccc[nH]2)C[C@]12CCN(CCN1CCCC1)C2=O`, the cytotoxicity at 70.5 h was -5.21%.
As to `COCCN1C(=O)CC[C@@H]2[C@@H]1CCN2Cc1c(C)noc1C`, the cytotoxicity at 70.5 h was -5.73%.
With `COCCN1CCC2(C1)c1ccccc1S(=O)(=O)N2C` (stereo not given) the figure was -10.1%; with `CNC(=O)COC1COC2(CCN(Cc3cccnc3)CC2)C1` (stereo not given), -9.98%; with `O=C(c1cscn1)N1CCc2ncnc(-c3cccnc3)c2CC1`, 18.5%.
With `O=C1N(Cc2ccncc2)CCC12CCCN(c1ncc(F)cn1)C2` (stereo not given) the figure was 14.6%.
With `CN(C)[C@@H]1CCN(S(=O)(=O)C2CC2)[C@H]1Cc1ccccc1`, the cytotoxicity at 70.5 h came out at 1.77%.
With `CC(C)CS(=O)(=O)N1C[C@H]2C[C@H](C(=O)N3CCN(C)CC3)[C@@H](C1)O2` the figure was -3.23%; with `CCS(=O)(=O)N1CCOC2(CCCN(Cc3ccccn3)C2)C1` (stereo not given), -1.63%.
For `Fc1cnc(N2CCCn3cnc(COc4cccnc4)c3C2)nc1` the value was -2.49%; for `CCS(=O)(=O)N1CCCn2cnc(COc3cccnc3)c2C1`, -2.04%; for `CCCS(=O)(=O)N1CCOC2(CCCN(Cc3ccccn3)C2)C1` (stereo not given), -2.44%.
For `CS(=O)(=O)NC[C@H]1OC[C@H]2CN(CCc3ccccc3)CC[C@H]21` the value was -0.811%.
On to `CC(C)CN1C[C@H]2C[C@H](C(=O)N3CCCC3)[C@@H](C1)O2`, for which the cytotoxicity at 70.5 h was -2.66%.
For `O=S(=O)(C1CC1)N1CCOC2(CCCN(Cc3ccccn3)C2)C1` (stereo not given) the value was -5.41%.
With `Cc1cnc(N2CCCn3c(nnc3CN(C)C(C)C)C2)nc1` the figure was -1.83%; with `O=C1N(CC2CC2)CCC12CCCN(c1ncc(F)cn1)C2` (stereo not given), -3.11%; with `Cc1ccc(N2CC[C@H]3O[C@H](C(=O)N4CCCCO4)CC[C@H]32)nn1`, -3.7%.
With `c1csc(CN2C[C@H](OCC3CCOCC3)[C@H]3COC[C@H]32)n1` the figure was 14.6%.
Consider `O=C1N(Cc2cccnc2)CCC12CCCN(c1ncccn1)C2` (stereo not given), for which the cytotoxicity at 70.5 h turned out to be 17.3%.
For `c1cncc(COCC2CC[C@H]3[C@H]2OCCN3Cc2ccoc2)c1` (stereo not given in full) the value was 11.3%; for `CO[C@@H]1CCN(Cc2cccs2)[C@@H]2CN(Cc3ccncc3)C[C@@H]21`, -3.45%; for `CO[C@H]1CCN(Cc2c(C)noc2C)[C@@H]2CN(Cc3cccnc3)C[C@H]12`, -7.23%.

(Values after ChEMBL document CHEMBL3507680, “University of Dundee, Gates Library screen for HepG2 cell viability”.)
